The text below walks through data of ChEMBL document CHEMBL1127909, “Tyrosinase inhibitory flavonoids fromheterotheca inuloides and their structural functions” (Bioorg Med Chem Lett, 1994).

Values after ≈ are worked out from the molar mass of the structure shown.

The term inhibition denotes the change of the read-out against control, counted positive when it falls. A high value points to a strong effect.

For assay [1], the system named is Tyrosinase (Agaricus bisporus). The assay is described as follows: Dose required for inhibitory activity against oxidation of L-DOPA by mushroom tyrosinase.
For assay [2], the target named is T1, Tyrosinase (Homo sapiens) (UniProt P14679).
T1 sequence (whole entry): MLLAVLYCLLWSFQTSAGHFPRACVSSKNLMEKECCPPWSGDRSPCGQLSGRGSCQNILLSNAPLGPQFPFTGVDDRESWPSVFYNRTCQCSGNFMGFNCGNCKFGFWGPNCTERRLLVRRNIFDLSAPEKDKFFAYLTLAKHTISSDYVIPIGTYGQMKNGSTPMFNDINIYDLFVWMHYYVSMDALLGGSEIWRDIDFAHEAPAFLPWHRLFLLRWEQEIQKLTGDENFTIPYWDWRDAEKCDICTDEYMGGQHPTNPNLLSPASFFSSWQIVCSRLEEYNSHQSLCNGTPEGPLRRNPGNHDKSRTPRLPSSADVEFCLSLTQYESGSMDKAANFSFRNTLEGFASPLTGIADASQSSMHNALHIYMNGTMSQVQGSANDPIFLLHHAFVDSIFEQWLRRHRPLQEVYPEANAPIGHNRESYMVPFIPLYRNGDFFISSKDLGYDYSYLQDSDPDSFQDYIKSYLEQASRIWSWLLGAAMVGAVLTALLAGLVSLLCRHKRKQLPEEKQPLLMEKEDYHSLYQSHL
The assay is described as follows: Percent inhibition of mushroom tyrosinase at concentration of 18 ug/ml.

Assay [3] deals with T1, Tyrosinase (Homo sapiens). Description: Percent inhibition of mushroom tyrosinase at concentration of 45 ug/ml.

On to `COc1cc(-c2oc3cc(O[C@H]4O[C@@H](COC(=O)/C=C/c5ccc(O)cc5)[C@H](O)[C@@H](O)[C@@H]4O)cc(O)c3c(=O)c2O)ccc1O`, for which, in assay [1], the ID50 was 0.44 µg/mL (≈ 0.705 µM). On the same count and under the same terms, in the case of `O=C(/C=C/c1ccc(O)cc1)OC[C@@H]1O[C@H](Oc2cc(O)c3c(=O)c(O)c(-c4ccc(O)cc4)oc3c2)[C@@H](O)[C@H](O)[C@H]1O` it was 0.39 µg/mL (≈ 0.656 µM). As to `O=c1c(O)c(-c2ccc(O)c(O)c2)oc2cc(O)cc(O)c12`, the inhibition was found to be 40% in assay [2] and 80% in assay [3].
